Results published in the NIST ThermoML archive (doi:10.1016/j.fluid.2010.10.009).

Experiments:
[1] = 303.15 K; 101.33 kPa; Liquid; Concentric cylinders viscometry
[2] = xn = mol fraction of the nth substance listed; settings: 101 kPa, Liquid, Concentric cylinders viscometry

CC(C)(C)O [2-methylpropan-2-ol]
Settings | viscosity [mPa·s]
[1] | 3.387

CC(C)(C)O [2-methylpropan-2-ol] + CCCCCCC
viscosity [mPa·s], [2]
Settings | 303.15 K | 308.15 K | 313.15 K | 318.15 K | 323.15 K
x1 = 0.103 | 0.3899 | 0.3703 | 0.353 | 0.3329 | 0.3144
x1 = 0.2002 | 0.4118 | 0.3885 | 0.367 | 0.3441 | 0.3201
x1 = 0.3006 | 0.4501 | 0.4228 | 0.3983 | 0.3737 | 0.3489
x1 = 0.3999 | 0.4922 | 0.463 | 0.433 | 0.4062 | 0.3805
x1 = 0.5001 | 0.558 | 0.5194 | 0.4838 | 0.4507 | 0.419
x1 = 0.6001 | 0.6624 | 0.6063 | 0.5587 | 0.5157 | 0.4765
x1 = 0.6996 | 0.8071 | 0.7282 | 0.667 | 0.6022 | 0.5477
x1 = 0.8001 | 1.1 | 0.9711 | 0.8581 | 0.7681 | 0.6836
x1 = 0.9 | 1.699 | 1.426 | 1.214 | 1.044 | 0.9079
x1 = 0.95 | 2.263 | 1.86 | 1.541 | 1.293 | 1.096
x1 = 1 | 3.387 | 2.63 | 2.097 | 1.707 | 1.415

CC(C)(C)O [2-methylpropan-2-ol] + CCCCCCCC
viscosity [mPa·s], [2]
Settings | 303.15 K | 308.15 K | 313.15 K | 318.15 K | 323.15 K
x1 = 0.1002 | 0.5022 | 0.4758 | 0.4509 | 0.4272 | 0.4044
x1 = 0.2002 | 0.5263 | 0.4972 | 0.47 | 0.4443 | 0.4198
x1 = 0.2996 | 0.558 | 0.525 | 0.4943 | 0.4656 | 0.4377
x1 = 0.4003 | 0.6031 | 0.5644 | 0.5287 | 0.4956 | 0.4646
x1 = 0.5006 | 0.6658 | 0.6186 | 0.5757 | 0.5363 | 0.5
x1 = 0.5998 | 0.7587 | 0.6975 | 0.6429 | 0.5938 | 0.549
x1 = 0.7 | 0.912 | 0.8243 | 0.7485 | 0.6822 | 0.6233
x1 = 0.799 | 1.187 | 1.044 | 0.9254 | 0.8261 | 0.7415
x1 = 0.8499 | 1.438 | 1.236 | 1.075 | 0.9428 | 0.833
x1 = 0.9 | 1.781 | 1.496 | 1.275 | 1.099 | 0.958
x1 = 0.9235 | 2.015 | 1.669 | 1.404 | 1.198 | 1.034
x1 = 0.9499 | 2.353 | 1.913 | 1.584 | 1.333 | 1.136
x1 = 1 | 3.387 | 2.63 | 2.097 | 1.707 | 1.415

CC(C)(C)O [2-methylpropan-2-ol] + CCCCCCCCC
[2], x1 = 1
Settings | viscosity [mPa·s]
303.15 K | 3.387
308.15 K | 2.63
313.15 K | 2.097
318.15 K | 1.707
323.15 K | 1.415

CC(C)(C)O [2-methylpropan-2-ol] + CCCCCCCCCC
[2], x1 = 1
Settings | viscosity [mPa·s]
303.15 K | 3.387
308.15 K | 2.63
313.15 K | 2.097
318.15 K | 1.707
323.15 K | 1.415

CCCCCCCCCC [decane]
Settings | viscosity [mPa·s]
[1] | 0.7838

CCCCCCCCCC [decane] + CC(C)(C)O
viscosity [mPa·s], [2]
Settings | 303.15 K | 308.15 K | 313.15 K | 318.15 K | 323.15 K
x2 = 0 | 0.7838 | 0.7337 | 0.6883 | 0.6466 | 0.6085
x2 = 0.1003 | 0.7786 | 0.7263 | 0.6791 | 0.6362 | 0.597
x2 = 0.2001 | 0.7925 | 0.7382 | 0.6879 | 0.6422 | 0.6002
x2 = 0.3 | 0.825 | 0.7653 | 0.7104 | 0.6604 | 0.6153
x2 = 0.3997 | 0.8622 | 0.7934 | 0.7326 | 0.6775 | 0.627
x2 = 0.5 | 0.9148 | 0.8404 | 0.7726 | 0.7125 | 0.6566
x2 = 0.5999 | 0.9861 | 0.8974 | 0.8188 | 0.7493 | 0.6869
x2 = 0.6997 | 1.129 | 1.01 | 0.9091 | 0.8219 | 0.7459
x2 = 0.8001 | 1.372 | 1.199 | 1.058 | 0.9404 | 0.8399
x2 = 0.8999 | 1.937 | 1.621 | 1.376 | 1.182 | 1.024
x2 = 0.9499 | 2.366 | 1.948 | 1.614 | 1.357 | 1.155

CCCCCCC [heptane]
Settings | viscosity [mPa·s]
[1] | 0.3773

CCCCCCC [heptane] + CC(C)(C)O
[2], x2 = 0
Settings | viscosity [mPa·s]
303.15 K | 0.3773
308.15 K | 0.3603
313.15 K | 0.3432
318.15 K | 0.3269
323.15 K | 0.3106

CCCCCCCCC [nonane]
Settings | viscosity [mPa·s]
[1] | 0.6323

CCCCCCCCC [nonane] + CC(C)(C)O
viscosity [mPa·s], [2]
Settings | 303.15 K | 308.15 K | 313.15 K | 318.15 K | 323.15 K
x2 = 0 | 0.6323 | 0.5974 | 0.5652 | 0.5352 | 0.5073
x2 = 0.1012 | 0.6377 | 0.5996 | 0.5644 | 0.532 | 0.502
x2 = 0.2008 | 0.6593 | 0.6177 | 0.5795 | 0.5442 | 0.5114
x2 = 0.3 | 0.6872 | 0.6414 | 0.5995 | 0.5608 | 0.5247
x2 = 0.3999 | 0.7276 | 0.676 | 0.6289 | 0.5857 | 0.5459
x2 = 0.4995 | 0.7904 | 0.7297 | 0.6749 | 0.6251 | 0.5795
x2 = 0.5998 | 0.8796 | 0.8038 | 0.7366 | 0.6766 | 0.6227
x2 = 0.6991 | 1.027 | 0.923 | 0.8336 | 0.7558 | 0.6874
x2 = 0.7997 | 1.297 | 1.136 | 1.003 | 0.8918 | 0.7976
x2 = 0.9 | 1.856 | 1.556 | 1.323 | 1.137 | 0.9883
x2 = 0.9494 | 2.392 | 1.944 | 1.608 | 1.351 | 1.151

CCCCCCCC [octane]
Settings | viscosity [mPa·s]
[1] | 0.4918

CCCCCCCC [octane] + CC(C)(C)O
[2], x2 = 0
Settings | viscosity [mPa·s]
303.15 K | 0.4918
308.15 K | 0.4684
313.15 K | 0.447
318.15 K | 0.425
323.15 K | 0.4049
